Test results from the supplement of paper PMC10307832.

compound: CC1=CC(=C(N1C2=CC=C(C=C2)Cl)C)C(=O)CN3CCCCC3 [IU1-47] + Nc1ncn([C@H]2C[C@H](O)[C@@H](CO)O2)c(=O)n1 [Decitabine] (partner 2 µM); experiment: relative viability (nuclei count vs DMSO), 5 days (fraction); higher = more cells survive; settings: first compound 0.08 µM
In short: (§1)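 Lung cancer cell lines in 1536-well plates were dosed by pin tool the day after seeding, either with one drug alone or with a fixed anchor-drug dose plus five library-drug doses (not always all listed) in √10 steps. After 5 days, cells were fixed and their nuclei stained in one step (final 0.05% Triton X-100, 1% formaldehyde, 1 ug/ml Hoechst), then counted on 4× images. Relative viability is the nuclei count in treated wells divided by that in vehicle wells. Values are medians of duplicate plates.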

Q: Which relative viability does the source give for LK-2 here?
A: 0.354

Q: With NCI-H2087 as the cell line, how does the relative viability read?
A: 0.317

Q: With NCI-H2342 as the cell line, how does the relative viability read?
A: 0.81

Q: How did the relative viability turn out when SK-MES-1 was run?
A: 0.329

Q: For H3255, which relative viability is on record?
A: 0.696

Q: Which relative viability does the source give for COR-L23 here?
A: 0.337

Q: Which relative viability does the source give for COR-L 105 here?
A: 0.793

Q: With LOU-NH91 as the cell line, how does the relative viability read?
A: 0.909

Q: How did the relative viability turn out when ChaGo-K-1 was run?
A: 0.531

Q: With NCI-H2170 as the cell line, how does the relative viability read?
A: 0.516

Q: For NCI-H2405, which relative viability is on record?
A: 0.839

Q: With A549 as the cell line, how does the relative viability read?
A: 0.284

Q: SW 900 was tested. Which relative viability did it give?
A: 0.414

Q: How did the relative viability turn out when NCI-H1648 was run?
A: 0.546

Q: For NCI-H1395, which relative viability is on record?
A: 0.687

Q: NCI-H1793 was tested. Which relative viability did it give?
A: 0.53

Q: NCI-H1944 was tested. Which relative viability did it give?
A: 0.446

Q: ABC-1 was tested. Which relative viability did it give?
A: 1.23

Q: For NCI-H358, which relative viability is on record?
A: 0.242

same assay, conditions: first compound 0.253 µM

Q: Which relative viability does the source give for NCI-H522 here?
A: 0.64

Q: Which relative viability does the source give for NCI-H727 here?
A: 0.894

Q: Which relative viability does the source give for NCI-H1650 here?
A: 0.593

Q: How did the relative viability turn out when NCI-H1993 was run?
A: 0.641

Q: SW 1573 was tested. Which relative viability did it give?
A: 0.599

Q: How did the relative viability turn out when NCI-H838 was run?
A: 0.451

Q: LCLC-103H was tested. Which relative viability did it give?
A: 0.731

Q: With NCI-H520 as the cell line, how does the relative viability read?
A: 0.507

Q: For NCI-H2126, which relative viability is on record?
A: 0.584

Q: With EMC-BAC-2 as the cell line, how does the relative viability read?
A: 1.03

Q: For NCI-H2085, which relative viability is on record?
A: 0.549

Q: With HCC-366 as the cell line, how does the relative viability read?
A: 0.382

Q: With NCI-H1666 as the cell line, how does the relative viability read?
A: 0.714

Q: How did the relative viability turn out when LK-2 was run?
A: 0.35

Q: Which relative viability does the source give for NCI-H2087 here?
A: 0.256

Q: For NCI-H2342, which relative viability is on record?
A: 0.766

Q: With SK-MES-1 as the cell line, how does the relative viability read?
A: 0.405

Q: For H3255, which relative viability is on record?
A: 0.681

Q: With COR-L23 as the cell line, how does the relative viability read?
A: 0.45

Q: COR-L 105 was tested. Which relative viability did it give?
A: 0.624

Q: LOU-NH91 was tested. Which relative viability did it give?
A: 0.854

Q: How did the relative viability turn out when ChaGo-K-1 was run?
A: 0.529

Q: With NCI-H2170 as the cell line, how does the relative viability read?
A: 0.529

Q: NCI-H2405 was tested. Which relative viability did it give?
A: 0.762

Q: How did the relative viability turn out when A549 was run?
A: 0.321

Q: Which relative viability does the source give for NCI-H1648 here?
A: 0.496

Q: For NCI-H1395, which relative viability is on record?
A: 0.802

Q: With NCI-H1944 as the cell line, how does the relative viability read?
A: 0.474

Q: How did the relative viability turn out when ABC-1 was run?
A: 1.32

Q: With NCI-H358 as the cell line, how does the relative viability read?
A: 0.204

same assay, conditions: first compound 0.8 µM

Q: How did the relative viability turn out when NCI-H522 was run?
A: 0.739

Q: How did the relative viability turn out when NCI-H727 was run?
A: 0.989

Q: How did the relative viability turn out when NCI-H1650 was run?
A: 0.391

Q: How did the relative viability turn out when NCI-H1993 was run?
A: 0.628

Q: SW 1573 was tested. Which relative viability did it give?
A: 0.542

Q: Which relative viability does the source give for NCI-H838 here?
A: 0.471

Q: For LCLC-103H, which relative viability is on record?
A: 0.724

Q: With NCI-H520 as the cell line, how does the relative viability read?
A: 0.469

Q: NCI-H2126 was tested. Which relative viability did it give?
A: 0.599

Q: For EMC-BAC-2, which relative viability is on record?
A: 0.996

Q: For NCI-H2085, which relative viability is on record?
A: 0.566

Q: For HCC-366, which relative viability is on record?
A: 0.349

Q: NCI-H1666 was tested. Which relative viability did it give?
A: 0.718

Q: For NCI-H596, which relative viability is on record?
A: 1.03

Q: For LK-2, which relative viability is on record?
A: 0.34

Q: How did the relative viability turn out when NCI-H2087 was run?
A: 0.311

Q: For NCI-H2342, which relative viability is on record?
A: 0.755

Q: For SK-MES-1, which relative viability is on record?
A: 0.3

Q: With H3255 as the cell line, how does the relative viability read?
A: 0.689

Q: With COR-L23 as the cell line, how does the relative viability read?
A: 0.481

Q: With COR-L 105 as the cell line, how does the relative viability read?
A: 0.677

Q: How did the relative viability turn out when LOU-NH91 was run?
A: 0.797

Q: How did the relative viability turn out when ChaGo-K-1 was run?
A: 0.542

Q: NCI-H2170 was tested. Which relative viability did it give?
A: 0.498

Q: With NCI-H2405 as the cell line, how does the relative viability read?
A: 0.769

Q: How did the relative viability turn out when A549 was run?
A: 0.335

Q: Which relative viability does the source give for SW 900 here?
A: 0.447

Q: For NCI-H1648, which relative viability is on record?
A: 0.664

Q: How did the relative viability turn out when NCI-H1395 was run?
A: 0.699

Q: NCI-H1793 was tested. Which relative viability did it give?
A: 0.538

Q: With NCI-H1944 as the cell line, how does the relative viability read?
A: 0.419

Q: Which relative viability does the source give for ABC-1 here?
A: 0.922

Q: How did the relative viability turn out when NCI-H358 was run?
A: 0.2

same assay, conditions: first compound 2.53 µM

Q: How did the relative viability turn out when NCI-H522 was run?
A: 0.763

Q: With NCI-H727 as the cell line, how does the relative viability read?
A: 0.722

Q: With NCI-H1650 as the cell line, how does the relative viability read?
A: 0.366

Q: How did the relative viability turn out when NCI-H1993 was run?
A: 0.687

Q: With SW 1573 as the cell line, how does the relative viability read?
A: 0.342

Q: With NCI-H838 as the cell line, how does the relative viability read?
A: 0.501

Q: LCLC-103H was tested. Which relative viability did it give?
A: 0.725

Q: NCI-H520 was tested. Which relative viability did it give?
A: 0.513

Q: With NCI-H2126 as the cell line, how does the relative viability read?
A: 0.544

Q: EMC-BAC-2 was tested. Which relative viability did it give?
A: 1.07

Q: For NCI-H2085, which relative viability is on record?
A: 0.519

Q: With HCC-366 as the cell line, how does the relative viability read?
A: 0.389

Q: NCI-H1666 was tested. Which relative viability did it give?
A: 0.738

Q: How did the relative viability turn out when NCI-H596 was run?
A: 1.09

Q: LK-2 was tested. Which relative viability did it give?
A: 0.372

Q: NCI-H2087 was tested. Which relative viability did it give?
A: 0.228

Q: NCI-H2342 was tested. Which relative viability did it give?
A: 0.688

Q: How did the relative viability turn out when SK-MES-1 was run?
A: 0.409

Q: For COR-L23, which relative viability is on record?
A: 0.432

Q: COR-L 105 was tested. Which relative viability did it give?
A: 0.751

Q: For LOU-NH91, which relative viability is on record?
A: 0.816

Q: Which relative viability does the source give for ChaGo-K-1 here?
A: 0.536

Q: Which relative viability does the source give for NCI-H2170 here?
A: 0.482

Q: NCI-H2405 was tested. Which relative viability did it give?
A: 0.779

Q: A549 was tested. Which relative viability did it give?
A: 0.253

Q: For SW 900, which relative viability is on record?
A: 0.452

Q: With NCI-H1648 as the cell line, how does the relative viability read?
A: 0.387

Q: How did the relative viability turn out when NCI-H1395 was run?
A: 0.704

Q: NCI-H1793 was tested. Which relative viability did it give?
A: 0.507

Q: With NCI-H1944 as the cell line, how does the relative viability read?
A: 0.426

Q: For NCI-H358, which relative viability is on record?
A: 0.201

same assay, conditions: first compound 8 µM

Q: How did the relative viability turn out when NCI-H522 was run?
A: 0.634

Q: How did the relative viability turn out when NCI-H727 was run?
A: 0.866

Q: NCI-H1650 was tested. Which relative viability did it give?
A: 0.445

Q: For NCI-H1993, which relative viability is on record?
A: 0.537

Q: Which relative viability does the source give for SW 1573 here?
A: 0.506

Q: For NCI-H838, which relative viability is on record?
A: 0.449

Q: How did the relative viability turn out when LCLC-103H was run?
A: 0.751

Q: For NCI-H520, which relative viability is on record?
A: 0.416

Q: How did the relative viability turn out when NCI-H2126 was run?
A: 0.583

Q: How did the relative viability turn out when EMC-BAC-2 was run?
A: 0.924

Q: With NCI-H2085 as the cell line, how does the relative viability read?
A: 0.478

Q: For HCC-366, which relative viability is on record?
A: 0.272

Q: NCI-H1666 was tested. Which relative viability did it give?
A: 0.784

Q: For NCI-H596, which relative viability is on record?
A: 0.977

Q: With LK-2 as the cell line, how does the relative viability read?
A: 0.179

Q: Which relative viability does the source give for NCI-H2087 here?
A: 0.23

Q: For NCI-H2342, which relative viability is on record?
A: 0.747

Q: With SK-MES-1 as the cell line, how does the relative viability read?
A: 0.38

Q: How did the relative viability turn out when H3255 was run?
A: 0.453

Q: Which relative viability does the source give for COR-L23 here?
A: 0.436

Q: Which relative viability does the source give for COR-L 105 here?
A: 0.66

Q: LOU-NH91 was tested. Which relative viability did it give?
A: 0.797

Q: With ChaGo-K-1 as the cell line, how does the relative viability read?
A: 0.533

Q: Which relative viability does the source give for NCI-H2170 here?
A: 0.555

Q: Which relative viability does the source give for NCI-H2405 here?
A: 0.765

Q: A549 was tested. Which relative viability did it give?
A: 0.221

Q: For SW 900, which relative viability is on record?
A: 0.353

Q: For NCI-H1648, which relative viability is on record?
A: 0.444

Q: How did the relative viability turn out when NCI-H1395 was run?
A: 0.713

Q: For NCI-H1793, which relative viability is on record?
A: 0.426

Q: How did the relative viability turn out when NCI-H1944 was run?
A: 0.388

Q: Which relative viability does the source give for ABC-1 here?
A: 1.19

Q: With NCI-H358 as the cell line, how does the relative viability read?
A: 0.21

compound: Cc1nc(C(=O)NCC(=O)O)c(O)c2ccc(Oc3ccccc3)cc12 [FG-4592] + C[C@@H](Oc1cc(-c2cnn(C3CCNCC3)c2)cnc1N)c1c(Cl)ccc(F)c1Cl [Crizotinib] (partner 1 µM); experiment: as above; settings: first compound 0.08 µM
In short: as §1

Q: Which relative viability does the source give for NCI-H727 here?
A: 0.776

Q: Which relative viability does the source give for NCI-H1650 here?
A: 1.14

Q: For EBC-1, which relative viability is on record?
A: 0.189

Q: How did the relative viability turn out when NCI-H1703 was run?
A: 0.591

Q: With NCI-H1993 as the cell line, how does the relative viability read?
A: 0.969

Q: Which relative viability does the source give for SW 1573 here?
A: 0.664

Q: NCI-H838 was tested. Which relative viability did it give?
A: 0.795

Q: For LCLC-103H, which relative viability is on record?
A: 0.884

Q: With NCI-H520 as the cell line, how does the relative viability read?
A: 0.731

Q: NCI-H2126 was tested. Which relative viability did it give?
A: 0.989

Q: With EMC-BAC-2 as the cell line, how does the relative viability read?
A: 0.736

Q: How did the relative viability turn out when NCI-H2085 was run?
A: 0.852
